Here are results for 26 molecules from US20240116910A1, “Heterocycles as WIP1 Inhibitors” (PMV Pharmaceuticals, Inc., priority 2022, published 2024).

This assay deals with recombinant His-tag Wip1(2-420) protein (amino acids #2-420) (Homo sapiens (Human), UniProt O15297). The assay can be described thus: Wip1(2-420) phosphatase enzyme FDP assay. As to conditions: fluorescein diphosphate (FDP) substrate, RT 2 hours, fluorescence Ex485/Em535; read-out: WIP1 (Truncated 2-420) FDP Assay: IC50. Format: biochemical.
Sequence of recombinant His-tag Wip1(2-420) protein (amino acids #2-420) (O15297 2-420): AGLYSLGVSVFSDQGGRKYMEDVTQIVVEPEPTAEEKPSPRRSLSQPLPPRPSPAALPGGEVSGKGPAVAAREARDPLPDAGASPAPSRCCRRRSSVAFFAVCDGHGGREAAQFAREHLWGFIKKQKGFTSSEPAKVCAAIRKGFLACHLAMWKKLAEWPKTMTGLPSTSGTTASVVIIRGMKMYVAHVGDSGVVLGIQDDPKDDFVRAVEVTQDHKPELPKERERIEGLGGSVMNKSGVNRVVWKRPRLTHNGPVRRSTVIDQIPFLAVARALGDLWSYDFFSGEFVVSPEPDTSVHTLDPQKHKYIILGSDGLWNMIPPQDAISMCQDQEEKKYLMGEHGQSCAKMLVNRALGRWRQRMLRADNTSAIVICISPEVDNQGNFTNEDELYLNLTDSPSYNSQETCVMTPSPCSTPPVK

By IC50 is commonly meant the concentration that gives 50% inhibition. On to `Cc1ncc(Cl)cc1N[C@H](c1ccc(C(=O)N[C@@H](CC2CCCC2)C(=O)NC2CC2)s1)C(F)(F)F` [Compound 185, (2S)-2-({5-[(1S)-1-[(5-chloro-2-methylpyridin-3-yl)amino]-2,2,2-trifluoroethyl]thiophen-2-yl}formamido)-3-cyclopentyl-N-cyclopropylpropanamide], for which the IC50 is 61 nM.
Under `Cc1ncc(Cl)cc1N[C@@H](c1ccc(C(=O)N[C@@H](CC2CCCC2)C(=O)NC23CC(C2)C3)s1)C(F)(F)F` [Compound 186, (2S)-N-{bicyclo[1.1.1]pentan-1-yl}-2-({5-[(1R)-1-[(5-chloro-2-methylpyridin-3-yl)amino]-2,2,2-trifluoroethyl]thiophen-2-yl}formamido)-3-cyclopentylpropanamide] stands 195 nM.
Under `Cc1ncc(Cl)cc1N[C@H](c1ccc(C(=O)N[C@@H](CC2CCCC2)C(=O)NC23CC(C2)C3)s1)C(F)(F)F` [Compound 187, (2S)-N-{bicyclo[1.1.1]pentan-1-yl}-2-({5-[(1S)-1-[(5-chloro-2-methylpyridin-3-yl)amino]-2,2,2-trifluoroethyl]thiophen-2-yl}formamido)-3-cyclopentylpropanamide] stands 37 nM; under `Cc1ncc(Cl)cc1NC(Cc1cnn(C)c1)c1ccc(C(=O)N[C@@H](CC2CCCC2)C(=O)NC2CC2)s1` (stereo partly drawn) [Compound 188, (2S)-2-[(5-{1-[(5-chloro-2-methylpyridin-3-yl)amino]-2-(1-methyl-1H-pyrazol-4-yl)ethyl}thiophen-2-yl)formamido]-3-cyclopentyl-N-cyclopropylpropanamide], 11 nM.
The same measure for `C[C@H](Nc1cc(Cl)cnc1C(F)(F)F)c1ccc(C(=O)N[C@@H](CC2CCCC2)C(=O)NC2CC2)s1` [Compound 189, (2S)-2-({5-[(1S)-1-{[5-chloro-2-(trifluoromethyl)pyridin-3-yl]amino}ethyl]thiophen-2-yl}formamido)-3-cyclopentyl-N-cyclopropylpropanamide]: 10 nM; for `C[C@@H](Nc1cc(Cl)cnc1C(F)(F)F)c1ccc(C(=O)N[C@@H](CC2CCCC2)C(=O)NC2CC2)s1` [Compound 190, (2S)-2-({5-[(1R)-1-{[5-chloro-2-(trifluoromethyl)pyridin-3-yl]amino}ethyl]thiophen-2-yl}formamido)-3-cyclopentyl-N-cyclopropylpropanamide]: 224 nM.
As to `Cc1ncc(Cl)cc1NC(Cn1cccn1)c1ccc(C(=O)N[C@@H](CC2CCCC2)C(=O)NC2CC2)s1` (stereo partly drawn) [Compound 191, (2S)-2-[(5-{1-[(5-chloro-2-methylpyridin-3-yl)amino]-2-(1H-pyrazol-1-yl)ethyl}thiophen-2-yl)formamido]-3-cyclopentyl-N-cyclopropylpropanamide], the IC50 was 13 nM.
For the molecule `CC(Nc1cc(Cl)cnc1C(C)(C)C#N)c1ccc(C(=O)N[C@@H](CC2CCCC2)C(=O)NC2CC2)s1` (some centres unmarked) [Compound 192], the IC50 amounted to 408 nM.
The same measure for `C[C@@H](Nc1cc(Cl)cnc1C(C)(C)O)c1ccc(C(=O)N[C@@H](CC2CCCC2)C(=O)NC2CC2)s1` [Compound 193, (2S)-2-({5-[(1R)-1-{[5-chloro-2-(2-hydroxypropan-2-yl)pyridin-3-yl]amino}ethyl]thiophen-2-yl}formamido)-3-cyclopentyl-N-cyclopropylpropanamide]: 316 nM; for `C[C@H](Nc1cc(Cl)cnc1C(C)(C)O)c1ccc(C(=O)N[C@@H](CC2CCCC2)C(=O)NC2CC2)s1` [Compound 194, (2S)-2-({5-[(1S)-1-{[5-chloro-2-(2-hydroxypropan-2-yl)pyridin-3-yl]amino}ethyl]thiophen-2-yl}formamido)-3-cyclopentyl-N-cyclopropylpropanamide]: 6 nM; for `Cc1ncc(Cl)cc1N[C@@H](C)c1ccc(C(=O)N[C@@H](CC2CCCC2)C(=O)Nc2ccc3cnccc3c2)s1` [Compound 195, (2S)-2-({5-[(1S)-1-[(5-chloro-2-methylpyridin-3-yl)amino]ethyl]thiophen-2-yl}formamido)-3-cyclopentyl-N-(isoquinolin-6-yl)propanamide]: 3 nM.
As to `CNC(=O)c1ncc(Cl)cc1N[C@@H](C)c1ccc(C(=O)N[C@@H](CC2CCCC2)C(=O)NC2CC2)s1` [Compound 196, 5-chloro-3-{[(1S)-1-(5-{[(1S)-2-cyclopentyl-1-(cyclopropylcarbamoyl)ethyl]carbamoyl}thiophen-2-yl)ethyl]amino}-N-methylpyridine-2-carboxamide], the 50% inhibitory concentration (IC50) was 6 nM.
Under `Cc1ncc(Cl)cc1N[C@@H](C)c1ccc(C(=O)N[C@@H](CC2CC3CC3C2)C(=O)NC2CC2)s1` (stereo partly drawn) [Compound 201, (2S)-3-{bicyclo[3.1.0]hexan-3-yl}-2-({5-[(1S)-1-[(5-chloro-2-methylpyridin-3-yl)amino]ethyl]thiophen-2-yl}formamido)-N-cyclopropylpropanamide] stands 7 nM.
The same measure for `CC(Nc1cc(Cl)cnc1C(F)(F)F)c1ccc(C(=O)N[C@@H](CC2CCCC2)C(=O)NC2CC2)s1` (stereo partly drawn) [Compound 202, (2S)-2-{[5-(1-{[5-chloro-2-(trifluoromethyl)pyridin-3-yl]amino}ethyl)thiophen-2-yl]formamido}-3-cyclopentyl-N-cyclopropylpropanamide]: 19 nM; for `CC(Nc1cc(Cl)cnc1C(C)(C)O)c1ccc(C(=O)N[C@@H](CC2CCCC2)C(=O)NC2CC2)s1` (stereo partly drawn) [Compound 203, (2S)-2-{[5-(1-{[5-chloro-2-(2-hydroxypropan-2-yl)pyridin-3-yl]amino}ethyl)thiophen-2-yl]formamido}-3-cyclopentyl-N-cyclopropylpropanamide]: 17 nM; for `COCCOCCNC(=O)[C@H](CC1CCCC1)NC(=O)c1ccc([C@H](C)Nc2cc(Cl)cnc2C)s1` [Compound 204, (2S)-2-({5-[(1S)-1-[(5-chloro-2-methylpyridin-3-yl)amino]ethyl]thiophen-2-yl}formamido)-3-cyclopentyl-N-[2-(2-methoxyethoxy)ethyl]propanamide]: 102 nM.
The same measure for `C[C@H](Nc1cc(Cl)cnc1C(=O)N(C)C)c1ccc(C(=O)N[C@@H](CC2CCCC2)C(=O)NC2CC2)s1` [Compound 205, 5-chloro-3-{[(1S)-1-(5-{[(1S)-2-cyclopentyl-1-(cyclopropylcarbamoyl)ethyl]carbamoyl}thiophen-2-yl)ethyl]amino}-N,N-dimethylpyridine-2-carboxamide]: 29 nM; for `Cc1ncc(Cl)cc1N[C@@H](C)c1ccc(C(=O)N[C@@H](CC2CCCC2)C(=O)N[C@H]2C[C@H](C#N)C2)s1` [Compound 211, (2S)-2-({5-[(1S)-1-[(5-chloro-2-methylpyridin-3-yl)amino]ethyl]thiophen-2-yl}formamido)-3-cyclopentyl-N-[(1r,3r)-3-cyanocyclobutyl]propanamide]: 10 nM.
In the case of `Cc1ncc(Cl)cc1NC(Cc1ccccc1)c1ccc(C(=O)N[C@@H](CC2CCCC2)C(=O)NC23CC(F)(C2)C3)s1` (stereo partly drawn) [Compound 212, (2S)-2-[(5-{1-[(5-chloro-2-methylpyridin-3-yl)amino]-2-phenylethyl}thiophen-2-yl)formamido]-3-cyclopentyl-N-{3-fluorobicyclo[1.1.1]pentan-1-yl}propanamide], the IC50 is 23 nM.
The same measure for `Cc1ncc(Cl)cc1N[C@H](Cc1ccccc1)c1ccc(C(=O)N[C@@H](CC2CCCC2)C(=O)NC23CC(C#N)(C2)C3)s1` [Compound 213, (2S)-2-({5-[(1R)-1-[(5-chloro-2-methylpyridin-3-yl)amino]-2-phenylethyl]thiophen-2-yl}formamido)-N-{3-cyanobicyclo[1.1.1]pentan-1-yl}-3-cyclopentylpropanamide]: 166 nM; for `Cc1ncc(Cl)cc1N[C@@H](Cc1ccccc1)c1ccc(C(=O)N[C@@H](CC2CCCC2)C(=O)NC23CC(C#N)(C2)C3)s1` [Compound 214, (2S)-2-({5-[(1S)-1-[(5-chloro-2-methylpyridin-3-yl)amino]-2-phenylethyl]thiophen-2-yl}formamido)-N-{3-cyanobicyclo[1.1.1]pentan-1-yl}-3-cyclopentylpropanamide]: 20 nM; for `Cc1ncc(Cl)cc1N[C@H](Cc1ccccc1)c1ccc(C(=O)N[C@@H](CC2CCCC2)C(=O)NC23CC(C2)C3)s1` [Compound 215, (2S)-N-{bicyclo[1.1.1]pentan-1-yl}-2-({5-[(1R)-1-[(5-chloro-2-methylpyridin-3-yl)amino]-2-phenylethyl]thiophen-2-yl}formamido)-3-cyclopentylpropanamide]: 101 nM.
The same measure for `Cc1ncc(Cl)cc1N[C@@H](Cc1ccccc1)c1ccc(C(=O)N[C@@H](CC2CCCC2)C(=O)NC23CC(C2)C3)s1` [Compound 216, (2S)-N-{bicyclo[1.1.1]pentan-1-yl}-2-({5-[(1S)-1-[(5-chloro-2-methylpyridin-3-yl)amino]-2-phenylethyl]thiophen-2-yl}formamido)-3-cyclopentylpropanamide]: 12 nM.
The same measure for `Cc1ncc(Cl)cc1N[C@@H](C)c1ccc(C(=O)N[C@@H](CCC(C)C)C(=O)NC2CC2)s1` [Compound 217, (2S)-2-({5-[(1S)-1-[(5-chloro-2-methylpyridin-3-yl)amino]ethyl]thiophen-2-yl}formamido)-N-cyclopropyl-5-methylhexanamide]: 27 nM; for `COCCn1cc(NC(=O)[C@H](CC2CCCC2)NC(=O)c2ccc([C@H](C)Nc3cc(Cl)cnc3C)s2)cn1` [Compound 220, (2S)-2-({5-[(1S)-1-[(5-chloro-2-methylpyridin-3-yl)amino]ethyl]thiophen-2-yl}formamido)-3-cyclopentyl-N-[1-(2-methoxyethyl)-1H-pyrazol-4-yl]propanamide]: 6 nM.
As to `Cc1ncc(Cl)cc1N[C@@H](C)c1ccc(C(=O)N[C@@H](CC2CCCC2)C(=O)N[C@H]2C[C@@H](C#N)C2)s1` [Compound 221, (2S)-2-({5-[(1S)-1-[(5-chloro-2-methylpyridin-3-yl)amino]ethyl]thiophen-2-yl}formamido)-3-cyclopentyl-N-[(1s,3s)-3-cyanocyclobutyl]propanamide], the IC50 was 6 nM.
